From patent EP4371563A1, “COMBINATIONS OF LAROTRECTINIB AND MODERATE CYP3A4 INDUCERS” (Bayer Consumer Care AG, priority 2022, dated 2024)

Tests used:
[1] = In silico model: simulated larotrectinib plasma exposure after a single oral dose with and without itraconazole or rifampicin (model verification against observed data); parameters: species or system human
Method: The effect of different CYP3A4 inhibitors and inducers on the pharmacokinetics of larotrectinib was evaluated using an in silico model. The following drugs were included in the study: The model was correlated by comparison of simulated and observed plasma concentrations in both healthy subjects and cancer patients for midazolam, testosterone, and several of the tested drugs, including larotrectinib alone, larotrectinib + intraconazole, larotrectinib + rifampicin. The following virtual trials were conducted: 12 healthy subjects (50% female) aged 20 to 55 years receiving larotrectinib (100 mg BID) for 14 days in the absence of itraconazole and coadminstered with itraconazole (tablets in fed state; 200 mg QD). A comparison was made between mean simulated and observed plasma concentrations of larotrectinib following a single oral dose of 100 mg larotrectinib in the absence of and co-administered with itraconazole on the 5th day of 7 days of dosing (200 mg QD). Simulated Cmax and AUC and corresponding ratios for larotrectinib are shown below. […] A comparison was made between mean simulated and observed plasma concentrations of larotrectinib following a single oral dose of 100 mg larotrectinib in the absence of and co-administered with rifampicin on the 10th day of 11 days of dosing (600 mg QD). Simulated Cmax and AUC and corresponding ratios for larotrectinib are shown below.

[2] = Observed larotrectinib plasma exposure after a single oral dose with and without itraconazole or rifampicin; type: in vivo, human; settings: for AUC / Cmax: human, plasma, po
Method: A comparison was made between mean simulated and observed plasma concentrations of larotrectinib following a single oral dose of 100 mg larotrectinib in the absence of and co-administered with itraconazole on the 5th day of 7 days of dosing (200 mg QD). Simulated Cmax and AUC and corresponding ratios for larotrectinib are shown below. […] A comparison was made between mean simulated and observed plasma concentrations of larotrectinib following a single oral dose of 100 mg larotrectinib in the absence of and co-administered with rifampicin on the 10th day of 11 days of dosing (600 mg QD). Simulated Cmax and AUC and corresponding ratios for larotrectinib are shown below.

[3] = Observed larotrectinib exposure at 100 mg BID without CYP3A4 perpetrators; settings: in vivo, 100 mg BID larotrectinib in the absence of any CYP3A4 perpetrators
Method: 100 mg BID larotrectinib was administered in the absence of any CYP3A4 perpetrators.

[4] = Observed, plus rifampicin 600 mg QD / control, single oral dose 100 mg larotrectinib, interval in brackets
[5] = coadministration of larotrectinib with rifampicin (600 mg QD)
[6] = 100 mg, Observed, Control: single oral dose 100 mg larotrectinib in absence of itraconazole, healthy subjects
[7] = 100 mg, Observed, Control: single oral dose 100 mg larotrectinib in absence of rifampicin
[8] = Observed, single oral dose 100 mg larotrectinib plus itraconazole 200 mg QD (5th day of 7 days), healthy subjects
[9] = Observed, single oral dose 100 mg larotrectinib plus rifampicin 600 mg QD (10th day of 11 days)

P/O Ratio AUC ([1]; predicted/observed of the AUC ratio plus itraconazole / control): 1.04
P/O Ratio AUC ([1]; predicted/observed of the AUC ratio plus rifampicin / control): 0.79
P/O Ratio Cmax ([1]; predicted/observed of the Cmax ratio plus itraconazole / control): 0.79
P/O Ratio Cmax ([1]; predicted/observed of the Cmax ratio plus rifampicin / control): 0.76
Ratio AUC [2, 4]: 0.19 (0.16, 0.24)
Ratio Cmax [2, 4]: 0.29 (0.23, 0.37)
observed reduction in exposure of larotrectinib, AUC [2, 5]: 81%
observed reduction in exposure of larotrectinib, Cmax [2, 5]: 71%
AUC [2, 6]: 1280 ng·h/mL
Cmax [2, 6]: 497 ng/mL
AUC [2, 7]: 1340 ng·h/mL
Cmax [2, 7]: 435 ng/mL
AUC [2, 8]: 5520 ng·h/mL
Cmax [2, 8]: 1400 ng/mL
AUC [2, 9]: 259 ng·h/mL
Cmax [2, 9]: 133 ng/mL
AUC [3]: 1590 ng·h/mL
Cmax [3]: 624 ng/mL
Structure (SMILES): O=C(Nc1cnn2ccc(N3CCC[C@@H]3c3cc(F)ccc3F)nc12)N1CC[C@H](O)C1 [larotrectinib]
